Here are results for 14 molecules from patent US11345659B2, “Pipecolic esters for inhibition of the proteasome” (THE BOARD OF REGENTS OF THE UNIVERSY OF TEXAS SYSTEM, priority 2018, dated 2022).

Where only a bound is given, the exact number is not on record here.

The term IC50 denotes the concentration that gives 50% inhibition.

Holding throughout (format): biochemical
Experiment [1] concerns the target T1, 20 S human housekeeping proteasome (Homo sapiens, UniProt P25787+P25789).
T1 construct: purified from erythrocytes; purchased Enzo Life Sciences, Inc. (Farmingdale, N.Y.); host or cells: human erythrocytes
Briefly: ChT-L peptidase activity of 20 S proteasome activated with Rpt5 peptide. Particulars: ChT-L, 20 S activated with Rpt5 peptide; for IC50: Suc-LLVY-AMC substrate, read-out: IC50. The method, then: (§1) Human housekeeping 20 S and 26 S and complexes purified from erythrocytes were purchased from Enzo Life Sciences, Inc. (Farmingdale, N.Y.). The 1 mg/ml stock 20 S proteasome was diluted to 0.2 mg/ml working solution in 50 mM Tris/HCl, pH 8 containing 20% glycerol (dilution buffer). For the 26 S proteasome stock, the dilution buffer was supplemented with 2 mM ATP, 1 mM MgCl2, and 1 mM DTT (dithiothreitol). The ChT-L peptidase activity was measured as arbitrary intensity units of fluorescence emitted by 7-amino-4-methylcoumarin (AMC) released from the canonical model peptide substrate succinyl-LeuLeuValTyr-methylcoumarin (SucLLVY-MCA; Bachem Bioscience Inc., Philadelphia, Pa.), used at concentration of 100 μM. Free AMC (Sigma-Aldrich, St. Louis, Mo.) was used as the standard. The Rpt5 C-terminal peptide was synthesized (standard solid-phase peptide chemistry) and purified to at least 98% purity by GenScript (Piscataway, N.J.). The Rpt5 peptide and the peptide substrate were dissolved in dimethylsulfoxide (DMSO) and such stock solutions were stored at −20° C. The total concentration of DMSO in final reaction mixtures never exceeded 3% (vol/vol).
The reaction was carried out in 96-well plates, in 100 μL of reaction mixture, for 1 hour at 37° C. In the case of 20 S proteasome, the reaction mixture consisted of 45 mM Tris/HCl, pH 8, 100 mM KCl with premixed 10 μM Rpt5 peptide and 100 μM Suc-LLVY-MCA, to which 200 ng (nearly […]) of proteasome and desired concentration of tested compounds in 1 μL of DMSO were added. To test the activity of 26 S proteasome under conditions challenging coordination of the three pairs of peptidase active centers, a mixture of three canonical substrates specific for the ChT-L (SucLLVY-MCA), trypsin-like (T-L; BocLRR-MCA) and caspase-like (Casp-L; Z-LLE-MCA) was used with each of the substrates at 33.3 μM (100 μM of the total substrate concentration). The reaction mixture in this case consisted of 50 mM Tris/HCl, pH 8, 20 mM NaCl, premixed with the substrates and 2 mM ATP, to which 200 ng (nearly 0.1 nmol) of the 26 S working solution and desired concentration of tested compounds in 0.5 μL of DMSO were added. The reaction rates were calculated from a linear segment of kinetic curves constructed from measurements in 1-minutes intervals (Fluoroskan Ascent plate reader; Thermo Fisher Scientific Inc., Waltham, Mass.). Reaction rates were calculated using a linear fit executed by Slope Analyzer and Enzyme Kinetics applications launched within Origin Pro 2017 (OriginLab). Specific activity of the control 20 S proteasome activated with the Rpt5 peptide was in the range of 1.4 to 2.3 nanomoles of AMC product released by 1 mg of 20 S per second (1.95±0.24; n=18). Specific activity of the control 26 S proteasome challenged with three substrates reached on average 0.28±0.06 nanomoles of AMC product released by 1 mg of the enzyme per second (n=6). For comparison, degradation of the canonical Suc-LLVY-MCA substrate by the control 26 S proteasome preceded with a rate in the range of 0.6-0.8 nanomoles of AMC released per mg of the enzyme per second. The data are presented as mean±SD or as a representative set from at least 3 independent experiments.
The compounds were evaluated using the 20 S human housekeeping proteasome. It was activated with the Rpt5 derived 10-residue peptide that contains the C-terminal HbYX (hydrophobic-Tyr-any AA) motif activating the proteasome in trans and to some extend mimic the activation by the 19 S regulatory particle (Osmulski and Gaczynska (2013) Molecular pharmacology 84: 104-113; Smith et al. (2006) J. Struct. Biol. 156: 72-83; Smith et al. (2007) Mol. Cell 27: 731-744). Proteolytic activity was monitored over time using a fluorogenic peptide substrate specific for the chymotrypsin-like active center (ChT-L, Suc-LLVY-AMC) in the presence of a concentration range of the inhibitors. […]

The target of experiment [2] is T2, latent core 20 S proteasome (Homo sapiens, UniProt P25787+P25789).
T2 construct: purified from erythrocytes; purchased Enzo Life Sciences, Inc. (Farmingdale, N.Y.); host or cells: human erythrocytes
The experiment is described as follows: Competition of compound 3 with tRpt6 peptide, ChT-L activity of latent core. The conditions noted are these: 2 μM tRpt6. From the text: According to the most recent model of the 26 S proteasome dynamic cycle, Rpt6 succeeds the Hb-Y—X containing anchor subunits Rpt5, Rpt3, and Rpt2 in docking into the α face pockets and promoting an intermediate conformation between latent and activated (open gate) proteasomes (Dong et al. ([…]) Nature 565(7737): 49-55). […] For comparison, no competition between tRpt5, expected to occupy the α5/α6 pocket, and compound 3 was detected.
Referring to FIG. 4, the C-terminal peptide derived from Rpt6 subunit compromises inhibition of the ChT-L activity of the latent core by the compound 3; however, only when added to the proteasome prior to the inhibitor. […] 1 μM compound 3 and 2 μM tRpt6 were tested. Mean±SD; n=3 to 6.

In the next experiment the target is T3, 26 S proteasome (Homo sapiens, UniProt P25787+P25789).
T3 construct: purified from erythrocytes; purchased Enzo Life Sciences, Inc. (Farmingdale, N.Y.); host or cells: human erythrocytes
Briefly: 26 S proteasome challenged with mixture of three substrates (surrogate proteinase assay). The conditions noted are these: mixture of ChT-L, T-L and Casp-L substrates, 33.3 μM each; read-out: IC50, 26 S proteasome with substrates for all three peptidases. The method, then: as §1
The reaction was carried out in 96-well plates, in 100 μL of reaction mixture, for 1 hour at 37° C. In the case of 20 S proteasome, the reaction mixture consisted of 45 mM Tris/HCl, pH 8, 100 mM KCl with premixed 10 μM Rpt5 peptide and 100 μM Suc-LLVY-MCA, to which 200 ng (nearly […]) of proteasome and desired concentration of tested compounds in 1 μL of DMSO were added. […] The reaction rates were calculated from a linear segment of kinetic curves constructed from measurements in 1-minutes intervals (Fluoroskan Ascent plate reader; Thermo Fisher Scientific Inc., Waltham, Mass.). Reaction rates were calculated using a linear fit executed by Slope Analyzer and Enzyme Kinetics applications launched within Origin Pro 2017 (OriginLab). […]

Take `COC(=O)N1CCCC[C@H]1C(=O)OCCCc1cc(OC)c(OC)c(OC)c1` [Compound 5, 1-methyl 2-(3-(3,4,5-trimethoxyphenyl)propyl) (S)-piperidine-1,2-dicarboxylate]: in experiment [1], the “ChT-L inhibitory activity in words” value is “completely abrogated activity” and the IC50 is over 50 µM. Taken in the same sequence, the figures for `O=C(O)[C@@H]1CCCCN1C(=O)OCc1ccccc1` [Compound 11, 1-((benzyloxy)carbonyl) (S)-piperidine-2-carboxylic Acid] were “inactive” and over 50 µM. With `O=C(OCCc1ccccc1)[C@@H]1CCCN1C(=O)OCc1ccccc1` [Compound 14, 1-benzyl 2-phenethyl (S)-pyrrolidine-1,2-dicarboxylate], in experiment [1], the “ChT-L inhibitory activity in words” value was “decreased activity” and the IC50 amounted to 19.2 µM. Turning to `CCCOC(=O)[C@@H]1CCCCN1C(=O)OCc1ccccc1` [Compound 10, 1-benzyl 2-propyl (S)-piperidine-1,2-dicarboxylate], in experiment [1], the “ChT-L inhibitory activity in words” value is “inactive” and the IC50 is over 50 µM. Take `COc1cc(CCCOC(=O)[C@@H]2CCCCN2C(=O)OCC(C)C)cc(OC)c1OC` [Compound 4, 1-isobutyl 2-(3-(3,4,5-trimethoxyphenyl)propyl) (S)-piperidine-1,2-dicarboxylate]: the IC50 in experiment [1] is 15.2 µM. “tRpt6: 10-residue peptide derived from C-terminal fragment of Rpt6 (KNMSIKKLWK) [reference compound]”: the “effect of peptide alone on proteasome activity” value in experiment [2] is “did not affect the proteasome activity”. In the case of `COc1cc(CCCOC(=O)[C@@H]2CCCN2C(=O)OCc2ccccc2)cc(OC)c1OC` [Compound 12, 1-benzyl 2-(3-(3,4,5-trimethoxyphenyl)propyl) (S)-pyrrolidine-1,2-dicarboxylate], in experiment [1], the “ChT-L inhibitory activity in words” value is “only had modest activity” and the IC50 turned out to be 23.8 µM. The matching figures for `COc1cc(COC(=O)[C@@H]2CCCCN2C(=O)OCc2ccccc2)cc(OC)c1OC` (stereo in doubt) [Compound 8, 1-benzyl 2-(3,4,5-trimethoxybenzyl) piperidine-1,2-dicarboxylate]: “significantly reduced its activity” and 19.8 µM.

Consider `COc1cc(CCOC(=O)[C@@H]2CCCCN2C(=O)OCc2ccccc2)cc(OC)c1OC` [Compound 7, 1-benzyl 2-(3,4,5-trimethoxyphenethyl) (S)-piperidine-1,2-dicarboxylate], for which, in experiment [1], the “ChT-L inhibitory activity in words” value is listed as “significantly reduced its activity” and the IC50 is 20.1 µM. For the molecule `O=C(OCCCc1ccccc1)[C@@H]1CCCN1C(=O)OCc1ccccc1` [Compound 13, 1-benzyl 2-(3-phenylpropyl) (S)-pyrrolidine-1,2-dicarboxylate], the IC50 in experiment [1] amounted to 6.6 µM. For the molecule `COc1cc(CCCOC(=O)[C@@H]2CCCN(C(=O)OCc3ccccc3)C2)cc(OC)c1OC` [Compound 6, 1-benzyl 3-(3-(3,4,5-trimethoxyphenyl)propyl) (R)-piperidine-1,3-dicarboxylate], the IC50 in experiment [1] was found to be 14.7 µM.

In the case of `COc1cc(CCCOC(=O)C2CCCCN2C(=O)OCc2ccccc2)cc(OC)c1OC` (racemic) [Compound 2, 1-benzyl 2-(3-(3,4,5-trimethoxyphenyl)propyl)piperidine-1,2-dicarboxylate], the IC50 in experiment [1] stood at 11.5 µM. Regarding `O=C(OCCCc1ccccc1)[C@@H]1CCCCN1C(=O)OCc1ccccc1` [Compound 9, 1-benzyl 2-(3-phenylpropyl) (S)-piperidine-1,2-dicarboxylate], the results for the IC50 (on 26 S proteasome; in experiment [1]) were over 60 µM and 2.6 µM, respectively.

In the case of `O=C(OCc1ccccc1)[C@@H]1CCCN1C(=O)OCc1ccccc1` [Compound 15, Dibenzyl (S)-pyrrolidine-1,2-dicarboxylate], in experiment [1], the “ChT-L inhibitory activity in words” value was “decreased activity” and the IC50 amounted to 33.5 µM.
